The test system of this test is P388 leukemia ip, CD2F1 mice, survival T/C. As to the kind of experiment: NCI In Vivo Anticancer Drug Screen. Data for tumor model P388 Leukemia (intraperitoneal) in CD2F1 (CDF1) mice. The following applies: endpoint: median survival time, higher = longer survival. Summed up: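 Mice carrying the transplanted tumor received test compound or vehicle. Survival was recorded in each group, and the value is the treated-group measurement divided by that of the vehicle-treated control group.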

[1] abbreviates: dose: 50.0 mg/kg/injection, schedule: Q01DX009 (ip), vehicle: saline.
Where [2] appears, read: dose: 100.0 mg/kg/injection, schedule: Q01DX009 (ip), vehicle: saline.
Setting [3] is: dose: 12.5 mg/kg/injection, schedule: Q01DX009 (ip), vehicle: saline.
Where [4] appears, read: dose: 25.0 mg/kg/injection, schedule: Q01DX009 (ip), vehicle: saline.
The mark [5] stands for this setting: dose: 50.0 mg/kg/injection, schedule: Q01DX009 (ip), vehicle: Klucel (hydroxypropylcellulose) (HPC).
[6] abbreviates: dose: 100.0 mg/kg/injection, schedule: Q01DX009 (ip), vehicle: Klucel (hydroxypropylcellulose) (HPC).
Where [7] appears, read: dose: 200.0 mg/kg/injection, schedule: Q01DX009 (ip), vehicle: Klucel (hydroxypropylcellulose) (HPC).
Setting [8] is: dose: 50.0 mg/kg/injection, schedule: Q01DX005 (ip), vehicle: saline with Tween-80.
Setting [9] is: dose: 100.0 mg/kg/injection, schedule: Q01DX005 (ip), vehicle: saline with Tween-80.
Where [10] appears, read: dose: 200.0 mg/kg/injection, schedule: Q01DX005 (ip), vehicle: saline with Tween-80.

Several values for one entry are separate records, joined by “and”; a condition that tells them apart may be missing. Identical values can stand only once. Inconclusive results and toxic doses are left out. Peptide text beside a SMILES is read from it.

In PubChem BioAssay AID330 (DTP/NCI, 2004) one finds T/C data, which are given here for 24 molecules.

With `CCC1C(=O)NC(=O)C1(C)c1ccccc1` (configuration not stated), the T/C is, setting by setting: (dose: 25.0 mg/kg/injection, schedule: Q01DX009 (ip), vehicle: saline with Tween-80) 100 % of control and 102 % of control; (dose: 50.0 mg/kg/injection, schedule: Q01DX009 (ip), vehicle: saline with Tween-80) 100 % of control and 105 % of control; (dose: 100.0 mg/kg/injection, schedule: Q01DX009 (ip), vehicle: saline with Tween-80) 102 % of control and 103 % of control; (dose: 200.0 mg/kg/injection, schedule: Q01DX009 (ip), vehicle: saline with Tween-80) 102 % of control and 111 % of control.

For the molecule `N/C(Cc1noc2ccc(F)cc12)=N\O`, the T/C reads like this: under setting [1], 107 % of control; under setting [2], 107 % of control.

Take `COc1ccc(Oc2cc3c(cc2OC)CCN(C)C3)cc1`: the T/C was 108 % of control under setting [3]; 104 % of control under setting [4]; 99 % of control and 107 % of control under setting [1].

As to `CCOc1cc(/C=N\NC(=O)C(=O)N/N=C\c2ccc(O)c(OCC)c2)ccc1O`, the T/C was 96 % of control under setting [5], 94 % of control under setting [6] and 94 % of control under setting [7].

`CC(=O)Nc1c(Cl)nc2cc(N(C)C)ccc2c1Cl`: the T/C reads like this: (dose: 60.0 mg/kg/injection, schedule: Q01DX005 (ip), vehicle: Klucel + Tween-80) 97 % of control; (dose: 120.0 mg/kg/injection, schedule: Q01DX005 (ip), vehicle: Klucel + Tween-80) 96 % of control; (dose: 240.0 mg/kg/injection, schedule: Q01DX005 (ip), vehicle: Klucel + Tween-80) 97 % of control.

Take `CN(C)CC(CN(C)C)C(=O)/C=C/c1ccccc1`: the T/C is, setting by setting: (dose: 1.56 mg/kg/injection, schedule: Q01DX005 (ip), vehicle: saline) 99 % of control; (dose: 3.12 mg/kg/injection, schedule: Q01DX005 (ip), vehicle: saline) 107 % of control.

In the case of `CCCCN1CC(=O)N2CCCC(c3ccccc3)N2C(=O)C1` (configuration not stated), the T/C runs as follows: under setting [8], 103 % of control; under setting [9], 105 % of control; under setting [10], 103 % of control.

Take `CC(=O)c1cc2ccccc2c2ccccc12`: the T/C under setting [8] was 98 % of control, the T/C under setting [9] is 98 % of control and the T/C under setting [10] is 96 % of control.

Regarding `O=C(CBr)Nc1ccc(Cc2ccc(NC(=O)CBr)cc2)cc1`, the T/C was 99 % of control (dose: 100.0 mg/kg/injection, schedule: Q01DX001 (ip), vehicle: saline with Tween-80); 93 % of control (dose: 200.0 mg/kg/injection, schedule: Q01DX001 (ip), vehicle: saline with Tween-80); 94 % of control (dose: 400.0 mg/kg/injection, schedule: Q01DX001 (ip), vehicle: saline with Tween-80).

As for `CSC(=S)n1nc(C)c(N=Nc2cccc(Cl)c2Cl)c1C`, the T/C runs as follows: under setting [8], 88 % of control; under setting [9], 88 % of control; under setting [10], 89 % of control.

As to `CSC(=C(C#N)C#N)N1CC1`, the T/C by setting is: (dose: 12.5 mg/kg/injection, schedule: Q01DX001 (ip), vehicle: DMSO) 103 % of control; (dose: 25.0 mg/kg/injection, schedule: Q01DX001 (ip), vehicle: DMSO) 97 % of control; (dose: 50.0 mg/kg/injection, schedule: Q01DX001 (ip), vehicle: DMSO) 96 % of control.

Consider `Nc1ncnc2c1ncn2CC1OC(O)C(O)C1NC(=O)C(N)Cc1ccccc1` (configuration not stated), for which the T/C was 94 % of control (dose: 8.0 mg/kg/injection, schedule: Q01DX005 (ip), vehicle: saline); 106 % of control (dose: 16.0 mg/kg/injection, schedule: Q01DX005 (ip), vehicle: saline); 94 % of control (dose: 32.0 mg/kg/injection, schedule: Q01DX005 (ip), vehicle: saline); 101 % of control (dose: 64.0 mg/kg/injection, schedule: Q01DX005 (ip), vehicle: saline); 94 % of control (dose: 128.0 mg/kg/injection, schedule: Q01DX005 (ip), vehicle: saline); 97 % of control (dose: 256.0 mg/kg/injection, schedule: Q01DX005 (ip), vehicle: saline).

Turning to `CN1C2CCC(=O)C1CC2` (configuration not stated), the T/C runs as follows: (dose: 6.25 mg/kg/injection, schedule: Q01DX005 (ip), vehicle: saline + Tween-80 + alcohol) 100 % of control; (dose: 12.5 mg/kg/injection, schedule: Q01DX005 (ip), vehicle: saline + Tween-80 + alcohol) 100 % of control; (dose: 25.0 mg/kg/injection, schedule: Q01DX005 (ip), vehicle: saline + Tween-80 + alcohol) 99 % of control.

As for `NC(=O)C1C2CC3C(C2O)C31C(N)=O` (configuration not stated), the T/C reads like this: (dose: 50.0 mg/kg/injection, schedule: Q01DX005 (ip), vehicle: saline) 91 % of control; (dose: 100.0 mg/kg/injection, schedule: Q01DX005 (ip), vehicle: saline) 92 % of control; (dose: 200.0 mg/kg/injection, schedule: Q01DX005 (ip), vehicle: saline) 98 % of control.

Regarding `COc1cccc2c1C(=O)c1c(O)c3c(c(O)c1C2=O)CC(O)(C(C)=O)CC3OC1CC(NCC2(O)OCC(O)C2O)C(O)C(C)O1` (configuration not stated), the T/C is, setting by setting: (dose: 3.13 mg/kg/injection, schedule: Q04DX003 (ip), vehicle: water) 103 % of control; (dose: 6.25 mg/kg/injection, schedule: Q04DX003 (ip), vehicle: water) 100 % of control; (dose: 12.5 mg/kg/injection, schedule: Q04DX003 (ip), vehicle: water) 117 % of control; (dose: 25.0 mg/kg/injection, schedule: Q04DX003 (ip), vehicle: water) 112 % of control and 113 % of control; (dose: 50.0 mg/kg/injection, schedule: Q04DX003 (ip), vehicle: water) 122 % of control; (dose: 100.0 mg/kg/injection, schedule: Q04DX003 (ip), vehicle: water) 182 % of control. The T/C (dose: 200.0 mg/kg/injection, schedule: Q04DX003 (ip), vehicle: water) is 108 % of control.

For `COc1cc(OC)c(-c2cc(C(=O)O)c3cc4ccccc4cc3n2)c(OC)c1`, the T/C under setting [5] is 89 % of control, the T/C under setting [6] was 99 % of control and the T/C under setting [7] was 97 % of control.

Consider `CC(C)C(NC(=O)C(CCCN=C(N)N)NC(=O)C(N)CCCCN)C(N)=O` (stereo not drawn) (H-Lys-Arg-Val-NH2; configuration not given here), for which the T/C (dose: 12.5 mg/kg/injection, schedule: Q01DX009 (ip), vehicle: water) is 105 % of control; the T/C (dose: 25.0 mg/kg/injection, schedule: Q01DX009 (ip), vehicle: water) is 103 % of control; the T/C (dose: 50.0 mg/kg/injection, schedule: Q01DX009 (ip), vehicle: water) was 99 % of control; the T/C (dose: 100.0 mg/kg/injection, schedule: Q01DX009 (ip), vehicle: water) was 105 % of control; the T/C (dose: 200.0 mg/kg/injection, schedule: Q01DX009 (ip), vehicle: water) was 100 % of control.

As for `O=C(O)CSCC(=O)Nc1cc(C(F)(F)F)cc(C(F)(F)F)c1`, the T/C (dose: 60.0 mg/kg/injection, schedule: Q01DX005 (ip), vehicle: Klucel (hydroxypropylcellulose) (HPC)) is 95 % of control; the T/C (dose: 120.0 mg/kg/injection, schedule: Q01DX005 (ip), vehicle: Klucel (hydroxypropylcellulose) (HPC)) was 98 % of control; the T/C (dose: 240.0 mg/kg/injection, schedule: Q01DX005 (ip), vehicle: Klucel (hydroxypropylcellulose) (HPC)) was 113 % of control.

Take `CN(C)C1=C(c2ccccc2)C(=O)C(c2ccccc2)=C1c1ccccc1`: the T/C (dose: 100.0 mg/kg/injection, schedule: Q04DX003 (ip), vehicle: Klucel (hydroxypropylcellulose) (HPC)) is 106 % of control; the T/C (dose: 200.0 mg/kg/injection, schedule: Q04DX003 (ip), vehicle: Klucel (hydroxypropylcellulose) (HPC)) was 109 % of control; the T/C (dose: 400.0 mg/kg/injection, schedule: Q04DX003 (ip), vehicle: Klucel (hydroxypropylcellulose) (HPC)) is 109 % of control.

With `COC(=O)C1=C(C(=O)OC)[C@@H]2CCC[C@H]1[C@H]1[C@@H]2N=NN1c1ccccc1`, the T/C is 100 % of control under setting [8], 98 % of control under setting [9] and 100 % of control under setting [10].

As to `CC(C)c1ccccc1Oc1ccccc1N=C1CCN(C)C1`, the T/C was 100 % of control under setting [3]; 107 % of control under setting [4]; 100 % of control and 95 % of control under setting [1].

Consider `O=S(=O)(Nc1ccccn1)c1ccc(N=Cc2c3ccccc3nc3cc(Cl)ccc23)cc1`, for which the T/C under setting [8] was 91 % of control and the T/C under setting [9] was 88 % of control.

For `O=C(Nc1ccccc1)Sc1nc2ccccc2s1`, the T/C was 102 % of control under setting [1]; 104 % of control under setting [2]; 104 % of control (dose: 200.0 mg/kg/injection, schedule: Q01DX009 (ip), vehicle: saline).

In the case of `Nc1ccc2nc3cc4c5ccccc5c(=O)c5cccc(c54)n3c(=O)c2c1`, the T/C (dose: 50.0 mg/kg/injection, schedule: Q01DX005 (ip), vehicle: Klucel + Tween-80) is 104 % of control.
